Test results as given in patent US20260098026A1, “M4 ACTIVATORS/MODULATORS AND USES THEREOF” (Cerevel Therapeutics, LLC, priority 2022, published 2026).

Target: T1, M3 muscarinic acetylcholine receptor (mAChR) (Homo sapiens, UniProt P20309)
T1 construct: expressed in transfected cells; host or cells: CHO-K1
Assay: FLIPR calcium assay (Fluo 8), M3-overexpressing CHO-K1 cells
Assay type: cell-based
Settings: FLIPR
Method: Stimulation of a Gq-coupled G-protein coupled receptors (GPCRs), result in an efflux of calcium from the endoplasmic reticulum to the cytoplasm (Berridge, 1993), thus rendering this assay appropriate for the assessment of M1, M3 and M5 receptors. CHO-K1 cells overexpressing the M1, M3, or M5 muscarinic acetylcholine receptor (mAChR) were dispensed at 15,000 cells per well in 30 μl volume to 384-well plates and grown overnight at 37° C. in a 5% CO2 atmosphere. Fluo-8 Solution, 10 μl per well, was added to each well and incubated for 30 minutes at 37° C. in a 5% CO2 atmosphere. Compounds diluted in Hanks' balanced salt solution (HBSS) were transferred to the cell assay plate at 10 μl per well, and then read on a FLIPR instrument. EC50 and Emax figures were calculated from the resulting data for each receptor subtype.

T1 sequence (P20309 whole entry): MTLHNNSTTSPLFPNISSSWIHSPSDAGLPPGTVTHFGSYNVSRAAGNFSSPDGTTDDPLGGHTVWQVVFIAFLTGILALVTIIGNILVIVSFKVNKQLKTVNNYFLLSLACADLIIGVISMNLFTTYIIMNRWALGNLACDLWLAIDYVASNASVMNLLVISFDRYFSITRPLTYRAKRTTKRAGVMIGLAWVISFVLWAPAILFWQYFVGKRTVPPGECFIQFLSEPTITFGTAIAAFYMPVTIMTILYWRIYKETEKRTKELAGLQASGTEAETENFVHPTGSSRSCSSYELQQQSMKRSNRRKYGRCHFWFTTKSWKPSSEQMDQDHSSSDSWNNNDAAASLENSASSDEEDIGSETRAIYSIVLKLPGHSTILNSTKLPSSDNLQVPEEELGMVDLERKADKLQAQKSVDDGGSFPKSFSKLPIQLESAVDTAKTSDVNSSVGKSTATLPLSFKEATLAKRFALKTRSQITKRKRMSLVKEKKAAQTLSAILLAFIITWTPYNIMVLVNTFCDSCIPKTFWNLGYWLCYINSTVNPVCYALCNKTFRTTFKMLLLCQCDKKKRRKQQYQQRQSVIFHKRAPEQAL

SMILES | EC50
CCOC(=O)N1CC2(CC(N3[C@@H]4CC[C@H]3CN(c3cc(F)cnc3-c3cnccn3)C4)CS2)C1 (single isomer, unassigned) [Compound A220] | > 10 µM
CCOC(=O)N1CC2(CC[C@@H](N3CCN(c4cc(Cl)cnc4-c4ccnc(C)n4)CC3)C2)C1 [Compound A248] | > 10 µM
CCOC(=O)N1CC2(CC[C@@H](N3CCC(c4cc(F)cnc4-c4ccc(F)cn4)CC3)C2)C1 [Compound A292] | > 10 µM
CCOC(=O)N1CC2(CC[C@@H](N3CCN(c4cc(F)cnc4-c4ccnc(C)n4)CC3)C2)C1 [Compound A254] | > 10 µM
CCOC(=O)N1CC2(CC[C@@H](N3CCN(c4cc(F)cnc4-c4ccn(COCC[Si](C)(C)C)n4)CC3)C2)C1 [Compound A196] | > 10 µM
CCOC(=O)N1CC2(CC[C@@H](N3CCN(c4cc(F)cnc4-c4ccccc4C(=O)NC)CC3)C2)C1 [Compound A151] | > 10 µM
CCOC(=O)N1CC2(CC[C@@H](N3CCN(c4cc(F)cnc4-c4ccc(=O)n(C(C)C)c4)CC3)C2)C1 [Compound A149] | > 10 µM
CCOC(=O)N1CC2(C[C@H](N3CCN(c4cccnc4-c4nncs4)CC3)CO2)C1 [Compound A237] | > 10 µM
CCOC(=O)N1CC2(C[C@H](N3CCN(c4cc(F)cnc4-c4cnccn4)CC3)CS2)C1 [Compound A225] | > 10 µM
CCOC(=O)N1CC2(CCC(N3CCN(c4cc(F)cnc4-c4cnccn4)CC3)CC2)C1 [Compound A224] | > 10 µM
CCOC(=O)N1CC2(CCC(N3[C@@H]4CC[C@H]3CN(c3cc(F)cnc3-c3cnccn3)C4)C2)C1 (single isomer, unassigned) [Compound A222] | > 10 µM
CCOC(=O)N1CC2(CC[C@@H](N3CCN(c4cc(F)cnc4-c4cc(F)cnc4F)CC3)C2)C1 [Compound A232] | > 10 µM

Same assay, conditions: FLIPR calcium

SMILES | EC50
CCOC(=O)N1CC2(CC[C@@H](N3CCN(c4cc(F)cnc4-c4cccc5cn(C)nc45)CC3)C2)C1 [Compound A66] | > 10 µM
CCOC(=O)N1CC2(CC[C@H](N3CCN(c4cc(Cl)cnc4C4CCOCC4)CC3)C2)C1 (single isomer, unassigned) [Compound A16] | > 10 µM
CCOC(=O)N1CC2(CC[C@@H](N3CCN(c4cccnc4-c4cncc(C#N)c4)CC3)C2)C1 [Compound A27] | > 10 µM

Target: T2, M4 mAChR (Homo sapiens, UniProt P08173)
T2 construct: expressed in transfected cells; host or cells: CHO-K1
T2 sequence (P08173 1-479): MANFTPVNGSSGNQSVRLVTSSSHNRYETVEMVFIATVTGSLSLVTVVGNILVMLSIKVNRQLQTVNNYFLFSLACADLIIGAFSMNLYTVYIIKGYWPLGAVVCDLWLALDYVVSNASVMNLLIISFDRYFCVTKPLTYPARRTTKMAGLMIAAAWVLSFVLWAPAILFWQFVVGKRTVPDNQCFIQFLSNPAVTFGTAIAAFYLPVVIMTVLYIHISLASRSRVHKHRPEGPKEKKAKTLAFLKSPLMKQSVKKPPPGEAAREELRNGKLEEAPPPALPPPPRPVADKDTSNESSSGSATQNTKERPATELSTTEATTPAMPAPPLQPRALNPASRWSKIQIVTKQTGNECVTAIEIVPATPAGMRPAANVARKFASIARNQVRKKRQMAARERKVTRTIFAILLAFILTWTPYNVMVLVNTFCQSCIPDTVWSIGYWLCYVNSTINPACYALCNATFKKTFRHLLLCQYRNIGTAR
Assay: cAMP TR-FRET assay with forskolin, M4-overexpressing CHO-K1 cells
Assay type: cell-based
Settings: cAMP TR-FRET with forskolin
Excerpt: The M2 and M4 mACh receptors are Gi-coupled receptors which, upon activation, produce a decrease in cAMP. Assays were developed that measured the potency and efficacy of compounds at the M2 or M4 mAChR using M2- or M4-overexpressing CHO-K1 cell lines. Time-resolved fluorescence resonance energy transfer (TR-FRET) technology was used, where signal occurs as a result of transfer of energy if the donor molecule is in close proximity to an acceptor molecule when the molecules have bound to the molecule of interest. The cAMP detection is a competition binding assay, where cAMP produced by cells competes for binding with the labeled donor molecule to the anti-cAMP acceptor antibody. Due to the low basal levels of cAMP in the CHO-K1 cell line, forskolin was used to increase cAMP levels to enable assessment of agonist activity at the mAChR of interest.

SMILES | Emax
CCOC(=O)N1CC2(CCC(N3CCN(c4cccnc4N4CCC4)CC3)C2)C1 (centres unmarked) [Compound A4, ethyl 6-(4-(2-(azetidin-1-yl)pyridin-3-yl)piperazin-1-yl)-2-azaspiro[3.4]octane-2-carboxylate] | 80 to 100%
CCOC(=O)N1CC2(CC[C@H](N3CCC(c4cc(F)cnc4-c4nncs4)CC3)C2)C1 (single isomer, unassigned) [Compound A21] | 80 to 100%
CCOC(=O)N1CC2(CC[C@@H](N3CCN(c4cc(F)cnc4C4(F)CCOCC4)CC3)C2)C1 (single isomer, unassigned) [Compound A19] | 80 to 100%
CCOC(=O)N1CC2(CC[C@H](N3CCC(c4cc(F)cnc4-n4cc(C)nn4)CC3)C2)C1 (single isomer, unassigned) [Compound A24] | 80 to 100%
CCOC(=O)N1CC2(CC[C@@H](N3CCC(O)(c4cc(F)cnc4-c4cnccn4)CC3)C2)C1 (single isomer, unassigned) [Compound A14] | 80 to 100%
CCOC(=O)N1CC2(CC[C@@H](N3CCC(c4cc(F)cnc4-c4cnccn4)CC3)C2)C1 (single isomer, unassigned) [Compound A11] | 80 to 100%
CCOC(=O)N1CC2(CC[C@@H](N3CCN(c4cc(F)cnc4-c4cscn4)CC3)C2)C1 [Compound A8, ethyl (6R)-6-[4-(5-fluoro-2-thiazol-4-yl-3-pyridyl)piperazin-1-yl]-2-azaspiro[3.4]octane-2-carboxylate] | 80 to 100%
CCOC(=O)N1CC2(CC[C@@H](N3CCC(c4cc(F)cnc4-c4nncs4)CC3)C2)C1 (single isomer, unassigned) [Compound A22] | 80 to 100%
CCOC(=O)N1CC2(CC[C@@H](N3CCC(c4cc(F)cnc4-n4cc(C)nn4)CC3)C2)C1 (single isomer, unassigned) [Compound A23] | 80 to 100%
CCOC(=O)N1CC2(CC[C@@H](N3CCN(c4cccnc4-c4cncc(OC(F)F)c4)CC3)C2)C1 [Compound A28] | 80 to 100%
CCOC(=O)N1CC2(CC[C@H](N3CCC(c4cc(F)cnc4-c4cnccn4)CC3)C2)C1 (single isomer, unassigned) [Compound A12] | 80 to 100%

Same assay, conditions: cAMP assay

SMILES | Emax
CCOC(=O)N1CC2(CC[C@@H](N3CCN(c4cc(F)cnc4-c4ccsn4)CC3)C2)C1 [Compound A270] | 80 to 100%
CCOC(=O)N1CC2(CC[C@@H](N3CCN(c4cc(Cl)cnc4-c4ncccc4Cl)CC3)C2)C1 [Compound A269] | 80 to 100%
CCOC(=O)N1CC2(CC[C@@H](N3CCN(c4cc(Cl)cnc4-c4cnc(C)nc4)CC3)C2)C1 [Compound A271] | 80 to 100%
CCOC(=O)N1CC2(CC[C@@H](N3CCN(c4cc(F)cnc4-n4cnnc4)CC3)C2)C1 [Compound A260] | 80 to 100%
CCOC(=O)N1CC2(CC[C@@H](N3CCN(c4cc(F)cnc4-c4ncccc4Cl)CC3)C2)C1 [Compound A287] | 80 to 100%
CCOC(=O)N1CC2(CC[C@@H](N3CCN(c4cc(F)cnc4-c4cccnn4)CC3)C2)C1 [Compound A242] | 80 to 100%
CCOC(=O)N1CC2(CC[C@@H](N3CCN(c4cc(Cl)cnc4Br)CC3)C2)C1 [Compound A263] | 80 to 100%
CCOC(=O)N1CC2(CC[C@@H](N3CCN(c4cc(F)cnc4-c4ncc(C)s4)CC3)C2)C1 [Compound A266] | 80 to 100%
CCOC(=O)N1CC2(CC[C@@H](N3CCN(c4cc(Cl)cnc4-c4cnc(C)cn4)CC3)C2)C1 [Compound A239] | 80 to 100%
CCOC(=O)N1CC2(CC[C@@H](N3CCN(c4cc(F)cnc4-c4nccnc4OC)CC3)C2)C1 [Compound A238] | 19 to 49.9%
CCOC(=O)N1CC2(CC[C@@H](N3CCN(c4cc(Cl)cnc4-n4nccn4)CC3)C2)C1 [Compound A262] | 80 to 100%
CCOC(=O)N1CC2(CC[C@@H](N3CCN(c4cc(F)cnc4C4CCC(F)(F)CC4)CC3)C2)C1 [Compound A275] | 80 to 100%
CCOC(=O)N1CC2(CC[C@@H](N3CCN(c4cc(F)cnc4C4CC5(COC5)C4)CC3)C2)C1 [Compound A277] | 80 to 100%
CCOC(=O)N1CC2(CC[C@@H](N3CCN(c4cc(F)cnc4-c4cnsc4)CC3)C2)C1 [Compound A214] | 80 to 100%
CCOC(=O)N1CC2(CC[C@@H](N3CCN(c4cc(F)cnc4-c4nncs4)CC3)C2)C1 [Compound A236] | 80 to 100%
CCOC(=O)N1CC2(CC[C@@H](N3CCN(c4cccnc4C4CCOCC4)CC3)C2)C1 [Compound A278] | 80 to 100%
CCOC(=O)N1CC2(CC[C@@H](N3CCN(c4cc(F)cnc4-c4ncc(F)cc4F)CC3)C2)C1 [Compound A240] | 80 to 100%
CCOC(=O)N1CC2(CC[C@@H](N3CCN(c4cc(F)cnc4-c4ccc(C)nn4)CC3)C2)C1 [Compound A241] | 50 to 79.9%
CCOC(=O)N1CC2(CC[C@@H](N3CCN(c4cc(F)cnc4-c4nc(C)cs4)CC3)C2)C1 [Compound A267] | 50 to 79.9%
CCOC(=O)N1CC2(CC[C@@H](N3CCN(c4cc(F)cnc4-c4nccs4)CC3)C2)C1 [Compound A286] | 80 to 100%
CCOC(=O)N1CC2(CC[C@@H](N3CCN(c4cc(F)cnc4C4CCOC4)CC3)C2)C1 (single isomer, unassigned) [Compound A281] | 80 to 100%
CCOC(=O)N1CC2(CC[C@@H](N3CCN(c4cc(F)cnc4-c4c[nH]c(=O)[nH]c4=O)CC3)C2)C1 [Compound A211] | 80 to 100%
CCOC(=O)N1CC2(CC[C@@H](N3CCN(c4cc(F)cnc4-c4ccns4)CC3)C2)C1 [Compound A213] | 80 to 100%
CCOC(=O)N1CC2(CC[C@@H](N3CCN(c4cc(F)cnc4OC4(C)CCOCC4)CC3)C2)C1 [Compound A261] | 80 to 100%
CCOC(=O)N1CC2(CC[C@@H](N3CCN(c4cccnc4-c4nncs4)CC3)C2)C1 [Compound A264] | 80 to 100%
CCOC(=O)N1CC2(CC[C@@H](N3CCN(c4cc(Cl)cnc4-c4cscn4)CC3)C2)C1 [Compound A212] | 80 to 100%
CCOC(=O)N1CC2(CC[C@@H](N3CCN(c4cc(Cl)cnc4-c4ncccc4F)CC3)C2)C1 [Compound A268] | 80 to 100%
